In data set [1] the test system is Staphylococcus aureus. The data set can be described thus: Antibacterial activity against Staphylococcus aureus by manual microdilution technique. In kind it is functional. (Dilution methods test growth across graded concentrations, often in twofold steps.)
The subject of data set [2] is Staphylococcus aureus. The data set can be described thus: Antibacterial activity against Staphylococcus aureus at 0.5 mg/liter by time kill assay. In kind it is functional.
In data set [3] the test system is Staphylococcus aureus. The experiment in a line: Antibacterial activity against Staphylococcus aureus by Etest. In kind it is functional.
Data set [4] relates to Staphylococcus aureus. The data set can be described thus: Antibacterial activity against Staphylococcus aureus infection-induced aortic valve endocarditis in rabbit assessed as number of survival days at 20 mg/kg, iv administered every 12 hrs for 5 days. In kind it is functional, Aorta.
Data set [5] deals with Staphylococcus aureus. The experiment in a line: Antibacterial activity against Staphylococcus aureus infection-induced aortic valve endocarditis in rabbit assessed as cured animals in blood culture at 20 mg/kg, iv administered every 12 hrs for 5 days sacrificed 12 hrs after end of treatment. In kind it is functional, organism-based. Further details: dose 20 mg/kg.
Data set [6] relates to Staphylococcus aureus. The experiment in a line: Antibacterial activity against Staphylococcus aureus infection-induced aortic valve endocarditis in rabbit assessed as reduction in bacterial burdens in blood culture at 20 mg/kg, iv administered every 12 hrs for 5 days sacrificed 12 hrs after end of treatment. It counts as functional.
For data set [7], the system named is Staphylococcus aureus. The experiment in a line: Antibacterial activity against Staphylococcus aureus infection-induced aortic valve endocarditis in rabbit assessed as cured animals in blood culture at 20 mg/kg, iv administered every 12 hrs for 5 days sacrificed 12 days after last dose. On the set-up: dose 20 mg/kg. It counts as functional, organism-based.
In data set [8] the test system is Staphylococcus aureus. The experiment in a line: Antibacterial activity against Staphylococcus aureus infection-induced aortic valve endocarditis in rabbit assessed as reduction in bacterial burdens in blood culture at 20 mg/kg, iv administered every 12 hrs for 5 days sacrificed 12 days after last dose. In kind it is functional.
The subject of data set [9] is Staphylococcus aureus. The data set can be described thus: Antibacterial activity against Staphylococcus aureus infection-induced aortic valve endocarditis in rabbit assessed as reduction in bacterial burdens in heart valve tissue culture at 20 mg/kg, iv administered every 12 hrs for 5 days sacrificed 12 hrs after end of treatment. It counts as functional, Aorta.
Data set [10] concerns Staphylococcus aureus. The experiment in a line: Antibacterial activity against Staphylococcus aureus infection-induced aortic valve endocarditis in rabbit assessed as reduction in bacterial burdens in heart valve tissue culture at 20 mg/kg, iv administered every 12 hrs for 5 days sacrificed 12 days after last dose. It counts as functional, Aorta.
A short description of data set [11]: Concentration in Staphylococcus aureus infection-induced aortic valve endocarditis rabbit serum at 20 mg/kg, iv administered every 12 hrs measured 30 mins after third dose. Further details: dose 20 mg/kg, route intravenous. It counts as ADME, organism-based, Oryctolagus cuniculus. The note with it: read-out: Drug uptake.
Data set [12] in a line: Concentration in Staphylococcus aureus infection-induced aortic valve endocarditis rabbit serum at 20 mg/kg, iv administered every 12 hrs measured 12 hrs after third dose. In kind it is ADME, organism-based, Oryctolagus cuniculus. Further details: dose 20 mg/kg, route intravenous. The note with it: read-out: Drug uptake.
Data set [13] can be described thus: AUC (0 to 12 hrs) in Staphylococcus aureus infection-induced aortic valve endocarditis rabbit at 20 mg/kg, iv administered every 12 hrs measured after third dose. In kind it is ADME, organism-based, Oryctolagus cuniculus. On the set-up: time < 12 hr, dose 20 mg/kg, route intravenous. The note with it: plasma.
Data set [14] can be described thus: AUC (0 to 12 hrs) in Staphylococcus aureus infection-induced aortic valve endocarditis rabbit at 20 mg/kg, iv administered every 12 hrs measured after seventh dose. On the set-up: time < 12 hr, dose 20 mg/kg, route intravenous. It counts as ADME, organism-based, Oryctolagus cuniculus. The note with it: plasma.
The nature of data set [15]: Concentration in Staphylococcus aureus infection-induced aortic valve endocarditis rabbit serum at 20 mg/kg, iv administered every 12 hrs measured 30 mins after seventh dose in presence of Dexamethasone. In kind it is ADME, organism-based, Oryctolagus cuniculus. On the set-up: dose 20 mg/kg, route intravenous. The note with it: read-out: Drug uptake.
Data set [16] is described as follows: Concentration in Staphylococcus aureus infection-induced aortic valve endocarditis rabbit serum at 20 mg/kg, iv administered every 12 hrs measured 12hrs after seventh dose in presence of Dexamethasone. On the set-up: dose 20 mg/kg, route intravenous. In kind it is ADME, organism-based, Oryctolagus cuniculus. The note with it: read-out: Drug uptake.
The nature of data set [17]: AUC (0 to 12 hrs) in Staphylococcus aureus infection-induced aortic valve endocarditis rabbit at 20 mg/kg, iv administered every 12 hrs measured after seventh dose in presence of Dexamethasone. In kind it is ADME, organism-based, Oryctolagus cuniculus. Further details: time < 12 hr, dose 20 mg/kg, route intravenous. The note with it: plasma.
For data set [18], the system named is Staphylococcus aureus. The experiment in a line: Cardiovascular activity in Staphylococcus aureus infection-induced aortic valve endocarditis rabbit assessed as increase in fractional shortening at 20 mg/kg, iv administered every 12 hrs for 5 days […]. In kind it is functional, organism-based. On the set-up: dose 20 mg/kg.
Data set [19] has as its system Oryctolagus cuniculus. The data set can be described thus: Toxicity in Staphylococcus aureus infection-induced aortic valve endocarditis rabbit assessed as tissue valve damage median score at 20 mg/kg, iv administered every 12 hrs for 5 days sacrificed 12 days after last dose by histopathology. It counts as organism-based. Further details: dose 20 mg/kg, route intravenous. The note with it: in vivo.

In data set [20] the test system is Oryctolagus cuniculus. The data set can be described thus: Toxicity in Staphylococcus aureus infection-induced aortic valve endocarditis rabbit assessed as inflammatory cell infiltration median score at 20 mg/kg, iv administered every 12 hrs for 5 days sacrificed 12 days after last dose by histopathology. On the set-up: dose 20 mg/kg, route intravenous. The note with it: in vivo, 288 h. It counts as organism-based.

Data set [21] deals with Oryctolagus cuniculus. The data set can be described thus: Toxicity in Staphylococcus aureus infection-induced aortic valve endocarditis rabbit assessed as collagenization median score at 20 mg/kg, iv administered every 12 hrs for 5 days sacrificed 12 days after last dose by histopathology. It counts as organism-based. The note with it: in vivo, 288 h. Further details: dose 20 mg/kg, route intravenous.

Data set [22] concerns Oryctolagus cuniculus. The experiment in a line: Toxicity in Staphylococcus aureus infection-induced aortic valve endocarditis rabbit assessed as fibrous content median score at 20 mg/kg, iv administered every 12 hrs for 5 days sacrificed 12 days after last dose by histopathology. In kind it is organism-based. On the set-up: dose 20 mg/kg, route intravenous. The note with it: in vivo, 288 h.

Data set [23] concerns Oryctolagus cuniculus. The experiment in a line: Toxicity in Staphylococcus aureus infection-induced aortic valve endocarditis rabbit assessed as calcification median score at 20 mg/kg, iv administered every 12 hrs for 5 days sacrificed 12 days after last dose by histopathology. In kind it is organism-based. Further details: dose 20 mg/kg, route intravenous. The note with it: in vivo, 288 h.

The nature of data set [24]: Drug level in Staphylococcus aureus infection-induced aortic valve endocarditis rabbit serum at 20 mg/kg, iv administered every 12 hrs measured 30 mins after seventh dose. The note with it: read-out: Drug uptake. On the set-up: dose 20 mg/kg, route intravenous. It counts as ADME, organism-based, Oryctolagus cuniculus.
Data set [25] in a line: Drug level in Staphylococcus aureus infection-induced aortic valve endocarditis rabbit serum at 20 mg/kg, iv administered every 12 hrs measured 12 hrs after seventh dose. In kind it is ADME, organism-based, Oryctolagus cuniculus. Further details: dose 20 mg/kg, route intravenous. The note with it: read-out: Drug uptake.

In brackets after ≈: the same amount, converted by molar mass. Activity calls are given as the source filed them.

As usually defined, the MBC is the lowest tested concentration that kills the bacteria rather than only halting them. As a reminder, the MIC is the smallest concentration in the dilution series that meets the test's criterion for growth inhibition. In the case of `Cc1onc(-c2ccccc2)c1C(=O)N[C@@H]1C(=O)N2[C@@H]1SC(C)(C)[C@@H]2C(=O)O` [OXACILLIN], in the data set with Staphylococcus aureus [1], the MBC was 0.5 µg/mL (≈ 1.25 µM) and the MIC is at most 0.25 µg/mL.

Take `CC1(C)S[C@@H]2[C@H](NC(=O)[C@H](N)c3ccc(O)cc3)C(=O)N2[C@H]1C(=O)O` [AMOXICILLIN]: in the data set with Staphylococcus aureus [1], the minimal bactericidal concentration (MBC) turned out to be 4 µg/mL (≈ 10.9 µM) and it took 2 µg/mL (≈ 5.47 µM) to inhibit growth (MIC).

One may read the AUC as the area under the concentration-time curve, a measure of exposure. In the data set on Staphylococcus aureus [1], `COc1c(N2C[C@@H]3CCCN[C@@H]3C2)c(F)cc2c(=O)c(C(=O)O)cn(C3CC3)c12` [MOXIFLOXACIN] displayed an MBC of 0.125 µg/mL (≈ 0.311 µM). Moreover, the MIC was 0.125 µg/mL (≈ 0.311 µM) against Staphylococcus aureus [1] and 0.064 µg/mL (≈ 0.159 µM) against Staphylococcus aureus [3]. Moreover, the figures for the log10CFU/ml with Staphylococcus aureus [2], in the data set on Staphylococcus aureus [6] and in the data set with Staphylococcus aureus [8] were over 3, 2.83 and 2.76 log10 CFU/ml, respectively. Besides, in the data set on Staphylococcus aureus [4], the Survival is 15.3 days. In addition, the outcome in the data set on Staphylococcus aureus [5], in the data set on Staphylococcus aureus [7] and with Staphylococcus aureus [18] was Active. The log10CFU/g worked out at 2.1 in the data set on Staphylococcus aureus [9] and 2.2 in the data set on Staphylococcus aureus [10]. Further, the results for the concentration at 0.5 h in data set [11], in [15] and in [24] were 3730 ng/mL, 3330 ng/mL and 4390 ng/mL, respectively. Besides, the concentration at 12 h in data set [12] turned out to be 230 ng/mL; in [16], 1000 ng/mL; in data set [25] it was 510 ng/mL. The area under the curve (AUC) at 12 h was determined as 16500 ng·h/mL in data set [13], 22200 ng·h/mL in data set [14] and 23900 ng·h/mL in data set [17]. The Activity was 2.3 in the data set on Oryctolagus cuniculus [19]; 1.2 in the data set with Oryctolagus cuniculus [20]; 2 with Oryctolagus cuniculus [21]; 1.6 with Oryctolagus cuniculus [22]; 1.6 with Oryctolagus cuniculus [23].

Source of the values: ChEMBL document CHEMBL1155768, “Dexamethasone as adjuvant therapy to moxifloxacin attenuates valve destruction in experimental aortic valve endocarditis due to Staphylococcus aureus” (Antimicrob Agents Chemother, 2007).
